“And” between values parts separate entries of the source, which are not always exact repeats. Identical values can stand only once.
Tests used:
[1] = molecular target: T1, GR (Homo sapiens, UniProt P04150); experiment: MMTV-Luc induction reporter assay in AD293 cells; assay type: cell-based; details: 16 h
T1 construct: expressed in transfected cells; host or cells: AD293
T1 sequence (P04150 1-777): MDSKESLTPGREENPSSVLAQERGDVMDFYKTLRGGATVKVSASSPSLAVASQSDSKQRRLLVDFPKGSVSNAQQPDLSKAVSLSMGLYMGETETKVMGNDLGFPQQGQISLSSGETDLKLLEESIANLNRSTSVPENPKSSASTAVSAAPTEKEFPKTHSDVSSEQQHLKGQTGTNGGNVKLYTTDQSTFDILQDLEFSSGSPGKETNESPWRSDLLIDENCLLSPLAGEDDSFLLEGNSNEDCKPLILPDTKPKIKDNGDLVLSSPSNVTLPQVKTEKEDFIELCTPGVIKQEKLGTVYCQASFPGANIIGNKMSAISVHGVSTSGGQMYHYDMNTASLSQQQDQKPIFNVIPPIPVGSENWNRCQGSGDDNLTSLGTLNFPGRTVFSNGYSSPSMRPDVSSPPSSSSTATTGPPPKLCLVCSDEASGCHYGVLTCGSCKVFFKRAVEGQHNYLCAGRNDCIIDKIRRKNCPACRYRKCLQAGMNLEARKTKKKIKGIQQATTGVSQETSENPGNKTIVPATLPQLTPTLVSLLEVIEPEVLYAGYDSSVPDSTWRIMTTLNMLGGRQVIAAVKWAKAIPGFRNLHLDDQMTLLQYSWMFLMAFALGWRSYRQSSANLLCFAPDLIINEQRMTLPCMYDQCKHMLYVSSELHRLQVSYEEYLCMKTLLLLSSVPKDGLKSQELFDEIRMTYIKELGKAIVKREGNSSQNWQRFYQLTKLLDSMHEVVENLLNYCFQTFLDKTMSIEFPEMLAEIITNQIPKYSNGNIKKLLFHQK
Method: (§1) Similar to previous reports, for induction 100 ng pHHLuc (MMTV-Luc) plasmid, 0.1 ng pRShGR together with 5 ng phRGtkRenilla were transfected by X-tremeGENE 9 (Roche) into AD293 cells per well in 24-well plate. For transrepression, 10 ng AP-1-Luc or 10ng pNF-κB-luc, 100 ng pRShGR and 5 ng phRGtkRenilla were transfected into AD293 cells per well. We used the same transfection protocol for the MR and PR assays, except of the use of 0.1 ng MR or PR plasmid to substitute GR. One day after transfection, for induction, cells were directly treated by steroids for 16 h; for repression, cells were treated with either PMA at 0.6 ng ml^–1 (for AP-1 reporter) or TNFα at 2 ng ml^–1 (for NF-κB reporter), together with various steroids. Cells were collected by addition of 1× Passive Lysis Buffer (Promega, Madison, WI, USA), and luciferase activity was assayed by the Dual-Glo Luciferase system (Promega). Data were plotted as firefly luciferase activity normalized to Renilla luciferase activity in Relative Luciferase Units.

[2] = test system: OVA-induced asthma; experiment: OVA-induced mouse asthma model; assay type: in vivo, Balb/c mice; details: for % repression of AHR: ACH challenge 4 mg kg^-1
Method: As described before, 7–9-week-old female Balb/c mice (Taconic) were sensitized on days 0, 7 and 14 by i.p. injection of 50 μg OVA/1 mg alum in a total of 200 μl saline. Control mice received an equal volume of alum only. Mice were lightly anesthetized by isoflurane inhalation and challenged with intranasal OVA (100 μg in 30 μl saline) or saline on days 21–23, and were i.p. injected with different steroids. Twenty-four hours after the last challenge and treatment, pulmonary resistance was measured in response to a range of concentrations of intravenous acetylcholine using the forced oscillation technique with the FlexiVent system (SCIREQ) as previously described. Serum samples were analyzed for OVA-specific IgE using an ELISA (BD Biosciences, clone R35-118). Total and differential cell counts were determined by hemocytometer and by light microscopic evaluation of more than 300 cells per slide as previously described. After lavage, lungs were inflated with 10% buffered formalin to 25 cm H2O and transferred to 10% buffered formalin. Sections (5 μm) were stained with H&E for semi-quantitative assessment of inflammation and PAS for evaluation of mucus production. To quantify inflammation, H&E-stained lung sections were de-identified for blinding and scored for peribronchial and perivascular inflammatory cell infiltration: grade 0, no infiltration; grade 1, <25% of examined area; grade 2, 25–50%; grade 3, 51–75%; and grade 4, >75%. To quantify goblet cell hyperplasia, PAS stained lung sections were de-identified for blinding and scored for the percentage of PAS positive cells among airway epithelial cells: grade 0: none; grade 1 <25% of airway epithelial cells; grade 2, 25–50%; grade 3, 51–75%; and grade 4, >75%.

[3] = molecular target: T1, GR; experiment: NF-κB-Luc repression reporter assay in AD293 cells; assay type: cell-based; details: TNFα 2 ng ml^-1
Method: as §1
Error bars indicate SD, n=3.

[4] = test system: IL-6 release from A549 cells; experiment: Cytokine inhibition assay, IL-6 release from A549 cells; assay type: cell-based; details: Homo sapiens, TNFα 2 ng ml^-1, read-out: IC50 (suppression of IL-6 release)
Method: A549 cells into 24-well plates were split at 40 000 cells/well. After 1 day growth, cells were treated with various steroids 1 h before overnight induction of inflammation by 2 ng ml^–1 TNFα according to literature. Sixteen hours after treatment, cell culture supernatants were subjected to anti-IL-6 Elisa (R&D Quantikine Elisa Human IL-6 Kit) according to the manual.

## CON(C)C(=O)C1(OC(=O)c2ccco2)C(C)CC2C3CC(F)C4=Cc5c(cnn5-c5ccccc5)CC4(C)C3(F)C(O)CC21C (centres unmarked) [VSGC12]
[1]
  EC50: 0.51 nM
[2]; 0.0625 mg/kg
  % repression of total differentiated cells: 37%
  % repression of AHR: 50%
[2]; 0.125 mg/kg
  % repression of total differentiated cells: 60%
[2]; 0.25 mg kg^-1
  histology score (hematoxylin and eosin and PAS staining): much lower score than 0.25 mg kg^–1 FF in both hematoxylin and eosin and PAS staining
[2]; 0.25 mg/kg
  % repression of total differentiated cells: 88%
  % repression of AHR: > 95% and 95%
[2]; 1 mg kg^-1 i.p.
  infiltration of immune responsive cells into the lungs (total and differential cell count): strongly repressed the infiltration of immune responsive cells into the lungs
[2]; 1 mg kg^-1 i.p., Balb/c mice
  repression of airway hyper-responsiveness (AHR): robustly repressed AHR to the basal level
[2]; 1 mg kg^-1 i.p., grade 0-4
  histology score, PAS staining: 0.25
  histology score, hematoxylin and eosin staining: almost zero
[2]; 1 mg/kg, OVA+DMSO 0, saline 100
  % repression of AHR: 98%
[2]; 1 mg/kg, saline 100, OVA+DMSO 0
  % repression of total differentiated cells: 99%
[2]; AHR repression >50%, i.p.
  minimal dose to effectively repress AHR (minimal effective dose): 0.0625 mg kg^–1
[2]; lower doses (0.25, 0.125, 0.0625 mg kg^-1)
  OVA-IgE levels: unexpectedly higher than the vehicle control
[3]
  IC50: 0.08 nM
[4]
  IC50: 0.05 nM
